In PubChem BioAssay (NCI):
Values joined by “and” are separate entries in the source; they are usually repeats but may differ in a detail not shown here. Equal values may be shown once.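 Step 1: Grow cells in 96-well plates. Step 2: Expose to compound for 48 hours at 5 concentrations. Step 3: Interpolate endpoints linearly; if unreached, use highest concentration. GI50 marks 50% less growth. At the TGI there is no net growth.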

Experiments:
Assay in all cases: NCI tumour cell line growth inhibition, 48 h
HOP-18 NSCLC = tested on: HOP-18 NSCLC
KM20L2 colon = tested on: KM20L2 colon
SNB-78 CNS = tested on: SNB-78 CNS
DMS 114 small cell lung = tested on: DMS 114 small cell lung
BT-549 breast = tested on: BT-549 breast
SN12K1 renal = tested on: SN12K1 renal
P388 leukemia = tested on: P388 leukemia
MDA-N = tested on: MDA-N
P388/ADR leukemia = tested on: P388/ADR leukemia
HS 578T breast = tested on: HS 578T breast
MDA-MB-435 = tested on: MDA-MB-435

| SMILES | TGI (HOP-18 NSCLC) | TGI (KM20L2 colon) | TGI (SNB-78 CNS) | TGI (DMS 114 small cell lung) | also measured |
| --- | --- | --- | --- | --- | --- |
| O=C(Nc1ccc(Cl)cc1Cl)OC(Cn1cncn1)c1ccc(Cl)cc1Cl (stereo not drawn) | 41.5 µM | 30.3 µM | 38.6 µM | 29.8 µM |  |
| COc1c(-c2ccccc2)nc2ccc(Oc3ccccc3)nn12 | > 87.1 µM | > 100 µM | > 100 µM | > 87.7 µM |  |
| O=C1c2ccccc2C2CCC1c1ccccc12 (stereo not drawn) | > 100 µM | > 100 µM | > 100 µM | 57 µM |  |
| Cn1cc2ccccc2c1-c1nc(F)nc(Oc2ccc3c(c2)CC[C@@H]2C3CC[C@@]3(C)C2C[C@H](O)[C@@H]3O)n1 (stereo partly drawn) | 54.8 µM | 29.4 µM | 54.2 µM | 25 µM |  |
| O=C(/C=C\c1cccc2ccccc12)c1ccc(Cl)cc1Cl | 48.1 µM | 91.8 µM | 45.5 µM | 30.8 µM |  |
| Nc1c(Cl)ncnc1NCCCCCCCCCCCCNc1ncnc(Cl)c1N | 83.1 µM | > 100 µM | 3.54 µM | 2.49 µM |  |
| COC1OC2COC(C)(C)OC2C(OC(C)=O)C1NC(=O)N(CCCl)N=O (stereo not drawn) | > 100 µM | > 100 µM | > 100 µM | > 100 µM |  |
| C/C=C1\CN2CCc3c([nH]c4ccccc34)C2CC1CCO (stereo not drawn) | > 100 µM | > 100 µM | > 100 µM | > 100 µM |  |
| COC(=O)[C@@]12CC(C(C)C)[C@H]3CC(C(=O)C=C1OC)[C@H]32 (stereo partly drawn) | > 100 µM | > 100 µM | > 100 µM | > 100 µM |  |
| CC(C)CCCCCCCCCCCCC(=O)NCC(=O)NC1C(O)C(O)C(Nc2ncnc3nc[nH]c23)OC1C(O)CO (stereo not drawn) | 0.00108 µM | 0.0222 µM and 0.0138 µM | 0.0647 µM and 0.244 µM | 0.0278 µM and 0.00687 µM | GI50 (BT-549 breast): < 0.01 nM; GI50 (SN12K1 renal): 0.00646 µM; TGI (SN12K1 renal): 0.332 µM and 0.223 µM; GI50 (P388 leukemia): 0.005 µM; TGI (P388 leukemia): 0.00616 µM and 0.00507 µM; GI50 (MDA-N): < 0.01 nM; GI50 (P388/ADR leukemia): 0.005 µM; GI50 (KM20L2 colon): 0.005 µM; GI50 (SNB-78 CNS): 0.005 µM; TGI (HS 578T breast): 0.446 µM; GI50 (MDA-MB-435): < 0.01 nM; GI50 (DMS 114 small cell lung): 0.005 µM |
| CCOc1ccccc1N=Nc1c(-c2ccccc2)nn(C(=O)CC(=O)Nc2cccc(C)c2)c1-c1ccccc1 | > 100 µM | > 100 µM | > 100 µM | > 100 µM |  |
| COC(=O)C1=CC2C=CC(C1C(=O)OC)C1C(C(=O)OC)=C(C(=O)OC)C(C(=O)OC)=C(C(=O)OC)C21OC (stereo not drawn) | > 100 µM | > 100 µM | > 100 µM | > 100 µM |  |
| NC1=NN(c2ccccc2)C(=O)C1C(=O)C(=O)Nc1ccc(Cl)c(Cl)c1 (stereo not drawn) | > 100 µM | > 100 µM | > 100 µM | > 100 µM |  |
| Cc1nc2c(o1)C(=Nc1ccccc1)c1nc(C)oc1C2=Nc1ccccc1 | 52.9 µM | 70 µM | > 100 µM | 60.4 µM |  |
| Clc1cccc(-c2nnc(-c3nn(-c4ccccc4)c4nc5ccccc5nc34)o2)c1 | > 100 µM | > 100 µM | > 100 µM | > 100 µM |  |
| N/N=C(/Cc1nc2ccc(C(=O)c3ccccc3)cc2[nH]c1=O)C(=O)Nc1ccc([N+](=O)[O-])cc1[N+](=O)[O-] | > 100 µM | > 100 µM | > 100 µM | > 100 µM | GI50 (SNB-78 CNS): > 100 µM; GI50 (DMS 114 small cell lung): > 100 µM |
